Data reported in patent US7342012B2, “Inhibitors of αLβ2 mediated cell adhesion” (Mitsubishi Tanabe Pharma Corporation, priority 1999, dated 2008).

| Compound | melting point |
| --- | --- |
| N#Cc1ccc(CC23CCCN2C(=O)N(Cc2cc(Cl)cc(Cl)c2)C3=O)cc1 (centres unmarked) [Example 106, 5-(4-Cyanobenzyl)-3-(3,5-dichlorobenzyl)-1,3-diazabicyclo[3.3.0]octane-2,4-dione] | 124 °C |
| N#Cc1ccc(CC23CCCN2C(=O)N(CCc2cccc(Cl)c2)C3=O)cc1 (centres unmarked) [Example 107, 5-(4-Cyanobenzyl)-3-[2-(3-chlorophenyl)ethyl]-1,3-diazabicyclo[3.3.0]octane-2,4-dione] | 148 °C |
| N#Cc1ccc(CC23CCCN2C(=O)N(Cc2ccncc2)C3=O)cc1 (centres unmarked) [Example 108, 5-(4-Cyanobenzyl)-3-(4-pyridylmethyl)-1,3-diazabicyclo[3.3.0]octane-2,4-dione] | 154 °C |
| O=C(c1ccc(Cl)c(Cl)c1)N1C(=O)N2CCCC2(Cc2ccc(Br)cc2)C1=O (centres unmarked) [Example 109, 5-(4-Bromobenzyl)-3-(3,4-dichlorobenzoyl)-1,3-diazabicyclo[3.3.0]octane-2,4-dione] | 158 °C |
| O=C1N(c2cc(Cl)cc(Cl)c2)C(=O)C2(Cc3ccc(Br)cc3)CC(F)(F)CN12 (centres unmarked) [Example 110, 5-(4-Bromobenzyl)-3-(3,5-dichlorophenyl)-7,7-difluoro-1,3-diazabicyclo[3.3.0]octane-2,4-dione] | 160.3 °C |
| N#Cc1ccc(C(=O)C23CCCN2C(=O)N(c2cc(Cl)cc(Cl)c2)C3=O)cc1 (centres unmarked) [Example 112, 5-(4-Cyanobenzoyl)-3-(3,5-dichlorophenyl)-1,3-diazabicyclo[3.3.0]octane-2,4-dione] | 72.1 °C |
| N#Cc1ccc(C(F)(F)C23CCCN2C(=O)N(c2cc(Cl)cc(Cl)c2)C3=O)cc1 (stereo not drawn) [Example 113, 5-(4-Cyano-α,α-difluorobenzyl)-3-(3,5-dichlorophenyl)-1,3-diazabicyclo[3.3.0]octane-2,4-dione] | 66 °C |
| O=C1N(c2cc(Cl)cc(Cl)c2)C(=O)C2(Cc3ccc(-c4ccc([N+](=O)[O-])cc4)cc3)CCCN12 (centres unmarked) [Example 114, 5-[4-(4-Nitrophenyl)benzyl]-3-(3,5-dichlorophenyl)-1,3-diazabicyclo[3.3.0]octane-2,4-dione] | 72 to 73 °C |
| Nc1ccc(-c2ccc(CC34CCCN3C(=O)N(c3cc(Cl)cc(Cl)c3)C4=O)cc2)cc1 (centres unmarked) [Example 115, 5-[4-(4-Aminophenyl)benzyl]-3-(3,5-dichlorophenyl)-1,3-diazabicyclo[3.3.0]octane-2,4-dione] | 278 °C (dec.) |
| CC(=O)Nc1ccc(-c2ccc(CC34CCCN3C(=O)N(c3cc(Cl)cc(Cl)c3)C4=O)cc2)cc1 (centres unmarked) [Example 116, 5-[4-(4-Acetylaminophenyl)benzyl]-3-(3,5-dichlorophenyl)-1,3-diazabicyclo[3.3.0]octane-2,4-dione] | 123.9 °C |
| CC(=O)Nc1cccc(-c2ccc(CC34CCCN3C(=O)N(c3cc(Cl)cc(Cl)c3)C4=O)cc2)c1 (centres unmarked) [Example 119] | 98 °C |
| O=C(Nc1ccccc1)Nc1cccc(-c2ccc(CC34CCCN3C(=O)N(c3cc(Cl)cc(Cl)c3)C4=O)cc2)c1 (centres unmarked) [Example 126, 5-[4-[3-(Phenylureido)phenyl]benzyl]-3-(3,5-dichlorophenyl)-1,3-diazabicyclo[3.3.0]octane-2,4-dione] | 150.2 °C |
| O=C1CCCN1c1cccc(-c2ccc(CC34CCCN3C(=O)N(c3cc(Cl)cc(Cl)c3)C4=O)cc2)c1 (centres unmarked) [Example 127, 5-[4-[3-(2-oxo-1-pyrrolidinyl)phenyl]benzyl]-3-(3,5-dichlorophenyl)-1,3-diazabicyclo[3.3.0]octane-2,4-dione] | 86.5 °C |
| N#Cc1ccc(CC23CCCN2C(=O)N(c2cc(Cl)nc(Cl)c2)C3=O)cc1 (centres unmarked) [Example 130, 5-(4-Cyanobenzyl)-3-(2,6-dichloro-4-pyridyl)-1,3-diazabicyclo[3.3.0]octane-2,4-dione] | 96 °C |
| N#Cc1ccc(CC23CCCN2C(=O)N(c2cc(Cl)c(N)c(Cl)c2)C3=O)cc1 (centres unmarked) [Example 132, 5-(4-Cyanobenzyl)-3-(3,5-dichloro-4-aminophenyl)-1,3-diazabicyclo[3.3.0]octane-2,4-dione] | 103 °C |
| O=C1N(c2cc(Cl)c(OCc3ccccc3)c(Cl)c2)C(=O)C2(Cc3ccc(Br)cc3)CCCN12 (centres unmarked) [Example 138, 5-(4-Bromobenzyl)-3-[3,5-dichloro-4-(benzyloxy)phenyl]-1,3-diazabicyclo[3.3.0]octane-2,4-dione] | 62 °C |
| COc1c(Cl)cc(N2C(=O)N3CCCC3(Cc3ccc(C#N)cc3)C2=O)cc1Cl (centres unmarked) [Example 139, 5-(4-Cyanobenzyl)-3-(3,5-dichloro-4-methoxyphenyl)-1,3-diazabicyclo[3.3.0]octane-2,4-dione] | 95.1 °C |
| COC(=O)c1ccc(CC23CCCN2C(=O)N(c2cc(Cl)c(O)c(Cl)c2)C3=O)cc1 (centres unmarked) [Example 142, 5-(4-Methoxycarbonylbenzyl)-3-(3,5-dichloro-4-hydroxyphenyl)-1,3-diazabicyclo[3.3.0]octane-2,4-dione] | 105.3 °C |
| COC(=O)c1ccc(CC23CCCCN2C(=O)N(c2cc(Cl)cc(Cl)c2)C3=O)cc1 (centres unmarked) [Example 155, 6-(4-Methoxycarbonylbenzyl)-8-(3,5-dichlorophenyl)-1,8-diazabicyclo[4.3.0]nonane-7,9-dione] | 51 °C |
| O=C(O)c1ccc(CC23CCCCN2C(=O)N(c2cc(Cl)cc(Cl)c2)C3=O)cc1 (centres unmarked) [Example 156] | 256.2 °C (dec.) |
| CNC(=O)c1ccc(CC23CCCCN2C(=O)N(c2cc(Cl)cc(Cl)c2)C3=O)cc1 (centres unmarked) [Example 157] | 78.7 °C (dec.) |

| Compound | melting point |
| --- | --- |
| CC1(C)COC(c2ccc(CC34CCCCN3C(=O)N(c3cc(Cl)cc(Cl)c3)C4=O)cc2)=N1 (centres unmarked) [Example 159, 6-[4-(4,4-Dimethyl-4,5-dihydro-2-oxazolyl)benzyl]-8-(3,5-dichlorophenyl)-1,8-diazabicyclo[4.3.0]nonane-7,9-dione] | 87.2 °C |
| N#Cc1ccc(CC23CN(C(=O)CCC(=O)O)CCN2C(=O)N(c2cc(Cl)nc(Cl)c2)C3=O)cc1 (centres unmarked) [Example 163, 6-(4-Cyanobenzyl)-4-(3-carboxypropionyl)-8-(2,6-dichloro-4-pyridyl)-1,4,8-triazabicyclo[4.3.0]nonane-7,9-dione] | 100.9 °C (dec.) |
| C[S+]([O-])c1ccc(CC23CCCN2C(=O)N(c2cc(Cl)cc(Cl)c2)C3=O)cc1 (centres unmarked) [Example 189, 5-(4-Methylsulfinylbenzyl)-3-(3,5-dichlorophenyl)-1,3-diazabicyclo[3.3.0]octane-2,4-dione] | 71.2 °C |
| CS(=O)(=O)c1ccc(CC23CCCN2C(=O)N(c2cc(Cl)cc(Cl)c2)C3=O)cc1 (centres unmarked) [Example 190, 5-(4-Methylsulfonylbenzyl)-3-(3,5-dichlorophenyl)-1,3-diazabicyclo[3.3.0]octane-2,4-dione] | 80.3 °C |
| O=C1N(c2cc(Cl)nc(Cl)c2)C(=O)C2(Cc3ccc(O)cc3)CCCN12 (centres unmarked) [Example 196, 5-(4-Hydroxybenzyl)-3-(2,6-dichloro-4-pyridyl)-1,3-diazabicyclo[3.3.0]octane-2,4-dione] | 164.9 °C |
| N#Cc1cc(CC23CCCN2C(=O)N(c2cc(Cl)nc(Cl)c2)C3=O)ccc1O (centres unmarked) [Example 197, 5-(3-Cyano-4-hydroxybenzyl)-3-(2,6-dichloro-4-pyridyl)-1,3-diazabicyclo[3.3.0]octane-2,4-dione] | 113.5 °C |
| O=C1N(c2cc(Cl)cc(Cl)c2)C(=O)C2(Cc3ccc(-c4cccc(CO)c4)cc3)CCCN12 (centres unmarked) [Example 222, 5-[4-(3-Hydroxymethylphenyl)benzyl]-3-(3,5-dichlorophenyl)-1,3-diazabicyclo[3.3.0]octane-l2,4-dione] | 77.1 °C |
| CC(O)c1cccc(-c2ccc(CC34CCCN3C(=O)N(c3cc(Cl)cc(Cl)c3)C4=O)cc2)c1 (centres unmarked) [Example 223, 5-[4-[3-(!-Hydroxy)ethylphenyl]benzyl]-3-(3,5-dichlorophenyl)-1,3-diazabicyclo[3.3.0]octane-2,4-dione] | 66.5 °C |
| COC(=O)/C=C/c1cccc(-c2ccc(CC34CCCN3C(=O)N(c3cc(Cl)cc(Cl)c3)C4=O)cc2)c1 (centres unmarked) [Example 224, (E)-5-[4-[3-(2-Methoxycarbonyl)vinylphenyl]benzyl]-3-(3,5-dichlorophenyl)-1,3-diazabicyclo[3.3.0]octane-2,4-dione] | 71.3 °C |
| CC(C)(C)OC(=O)c1c(Cl)cc(N2C(=O)N3CCCC3(Cc3ccc(Br)cc3)C2=O)cc1Cl (centres unmarked) [Example 225, 5-(4-Bromobenzyl)-3-[3,5-dichloro-4-(t-butoxycarbonyl)phenyl]-1,3-diazabicyclo[3.3.0]octane-2,4-dione] | 109 to 110 °C |
| O=C(O)CNC(=O)c1c(Cl)cc(N2C(=O)N3CCCC3(Cc3ccc(Br)cc3)C2=O)cc1Cl (centres unmarked) [Example 227, 5-(4-Bromobenzyl)-3-[3,5-dichloro-4-(carboxymethylcarbamoyl)phenyl]-1,3-diazabicyclo[3.3.0]octane-2,4-dione] | 157 to 158 °C |
| NC(=O)C[C@H](NC(=O)c1c(Cl)cc(N2C(=O)N3CCCC3(Cc3ccc(Br)cc3)C2=O)cc1Cl)C(=O)O (stereo partly drawn) [Example 229, 5-(4-Bromobenzyl)-3-(3,5-dichloro-4-L-asparaginocarbonylphenyl)-1,3-diazabicyclo[3.3.0]octane-2,4-dione] | 172 °C |
| O=C1N(c2cccc(Cl)c2)C(=O)C2(Cc3ccc(Br)cc3)CCCN12 (centres unmarked) [Example 230] | 66 °C |
| CSc1cccc(N2C(=O)N3CCCC3(Cc3ccc(Br)cc3)C2=O)c1 (centres unmarked) [Example 231] | 84.8 °C |
| O=C1N(c2cccc(C(F)(F)F)c2)C(=O)C2(Cc3ccc(Br)cc3)CCCN12 (centres unmarked) [Example 233] | 82.6 °C |
| N#Cc1cccc(N2C(=O)N3CCCC3(Cc3ccc(Br)cc3)C2=O)c1 (centres unmarked) [Example 234] | 241 °C |
| COc1cc(OC)cc(N2C(=O)N3CCCC3(Cc3ccc(Br)cc3)C2=O)c1 (centres unmarked) [Example 235] | 154.8 °C |
| O=C(O)c1cc(C(=O)O)cc(N2C(=O)N3CCCC3(Cc3ccc(Br)cc3)C2=O)c1 (centres unmarked) [Example 236] | 259 °C (dec.) |
| CC(=O)c1cccc(N2C(=O)N3CCCC3(Cc3ccc(Br)cc3)C2=O)c1 (centres unmarked) [Example 237] | 120.4 °C |
| O=C1N(c2cccc(F)c2)C(=O)C2(Cc3ccc(Br)cc3)CCCN12 (centres unmarked) [Example 238] | 120.9 °C |
